17 molecules from US20070249620A1, “Urea Derivative” (priority 2004, published 2007) can be followed below.

Data set [1] has as its target T1, mouse DGAT1 (Mus musculus, UniProt Q9Z2A7).
T1 construct: made in house; host or cells: insect cells (High Five, Sf9, Sf21, etc.), baculovirus expression system (Invitrogen)
T1 sequence (Q9Z2A7 1-498): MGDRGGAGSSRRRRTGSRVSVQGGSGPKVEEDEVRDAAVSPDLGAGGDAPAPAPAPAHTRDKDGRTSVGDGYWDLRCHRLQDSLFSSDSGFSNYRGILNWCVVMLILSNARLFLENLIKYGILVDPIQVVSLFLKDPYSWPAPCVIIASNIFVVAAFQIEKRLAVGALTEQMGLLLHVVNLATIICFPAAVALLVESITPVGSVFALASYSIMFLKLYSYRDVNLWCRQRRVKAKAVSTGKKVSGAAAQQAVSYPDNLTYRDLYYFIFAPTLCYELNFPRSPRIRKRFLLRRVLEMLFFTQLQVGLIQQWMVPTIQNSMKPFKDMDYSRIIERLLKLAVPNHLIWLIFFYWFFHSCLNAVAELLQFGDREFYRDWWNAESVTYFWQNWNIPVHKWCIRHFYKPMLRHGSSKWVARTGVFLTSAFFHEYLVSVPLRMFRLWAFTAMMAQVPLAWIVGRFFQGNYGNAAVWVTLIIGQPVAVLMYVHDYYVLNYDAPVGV
In words: DGAT1 inhibitory effect test (microsome fraction, [14C]-oleoyl-CoA, triglyceride radioactivity by TLC). Conditions: 0.5 h; concentration of the test compound 0.1 μg/ml; mouse DGAT1 microsomes, 23° C., 30 minutes; read-out: Inhibitory ratio. Format: biochemical. A digest of the protocol: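 Baculovirus-expressed mouse DGAT1 insect-cell microsomes (10 μg) were incubated 30 min at 23 °C, pH 8.0, with 0.5 mM 1,2-dioleoyl-sn-glycerol, 30 μM [14C]-oleoyl-CoA and 0.5% Triton X-100. [14C]-triglyceride was quantified after heptane extraction and TLC. Percent inhibition was taken against vehicle control, with 0-min background subtracted.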

Where only a bound is given, the exact number is not on record here.

As to `COc1ccc(C)cc1NC(=O)Nc1ccc(C2=CCN(C(=O)Nc3ccc(OCCO)cc3C(F)(F)F)CC2)cc1` [Example 230, 4-{4-[3-(2-methoxy-5-methyl-phenyl)-ureido]-phenyl}-3,6-dihydro-2H-pyridine-1-carboxylic acid [4-(2-hydroxy-ethoxy)-2-trifluoromethyl-phenyl]-amide], the melting point was 150 to 153 °C. Further, in data set [1], the inhibition at 0.1 µg/mL is not below 50%.

As to `COc1ccc(C)cc1NC(=O)Nc1ccc(N2CCN(C(=O)Nc3cc(OCCO)ccc3Cl)CC2)cc1` [Example 231, 4-{4-[3-(2-methoxy-5-methyl-phenyl)-ureido]-phenyl}-piperazine-1-carboxylic acid [2-chloro-5-(2-hydroxy-ethoxy)-phenyl]-amide], the melting point was 121 to 124 °C. For the same molecule, the inhibition at 0.1 µg/mL in data set [1] is not below 50%.

On to `COc1ccccc1NC(=O)Nc1ccc(N2CCN(C(=O)Nc3cc(OCCO)ccc3Cl)CC2)cc1` [Example 232, 4-{4-[3-(2-methoxy-phenyl)-ureido]-phenyl}-piperazine-1-carboxylic acid [2-chloro-5-(2-hydroxy-ethoxy)-phenyl]-amide], for which the melting point was in the range of 179 to 180 °C. Besides, the inhibition at 0.1 µg/mL in data set [1] was not below 50%.

Molecule `CCOc1cccc(NC(=O)Nc2ccc(N3CCN(C(=O)Nc4cc(OCCO)ccc4Cl)CC3)cc2)c1` [Example 233, 4-{4-[3-(3-ethoxy-phenyl)-ureido]-phenyl}-piperazine-1-carboxylic acid [2-chloro-5-(2-hydroxy-ethoxy)-phenyl]-amide] gave a melting point of 196 to 197 °C. In addition, in data set [1], the inhibition at 0.1 µg/mL was not below 50%.

In the case of `COc1cc(NC(=O)Nc2ccc(N3CCN(C(=O)Nc4cc(OCCO)ccc4Cl)CC3)cc2)cc(OC)c1` [Example 234, 4-{4-[3-(3,5-dimethoxy-phenyl)-ureido]-phenyl}-piperazine-1-carboxylic acid [2-chloro-5-(2-hydroxy-ethoxy)-phenyl]-amide], the melting point lay in the range of 191 to 192 °C. Also, the inhibition at 0.1 µg/mL in data set [1] was not below 50%.

As for `COc1ccccc1NC(=O)Nc1ccc(N2CCN(C(=O)Nc3cc(OCCO)ccc3Cl)CC2)nc1` [Example 235, 4-{5-[3-(2-methoxy-phenyl)-ureido]-pyridin-2-yl}-piperazine-1-carboxylic acid [2-chloro-5-(2-hydroxy-ethoxy)-phenyl]-amide], the melting point was 139 to 141 °C. The inhibition at 0.1 µg/mL in data set [1] was not below 50%.

For `CCOc1cccc(NC(=O)Nc2ccc(N3CCN(C(=O)Nc4cc(OCCO)ccc4Cl)CC3)nc2)c1` [Example 236, 4-{5-[3-(3-ethoxy-phenyl)-ureido]-pyridin-2-yl}-piperazine-1-carboxylic acid [2-chloro-5-(2-hydroxy-ethoxy)-phenyl]-amide], the melting point is 140 to 143 °C. Moreover, the inhibition at 0.1 µg/mL in data set [1] was not below 50%.

In turn, `Cc1nc(NC(=O)Nc2ccc(N3CCN(C(=O)Nc4cc(OCCO)ccc4Cl)CC3)nc2)sc1C` [Example 237, 4-{5-(3-(4,5-dimethyl-thiazol-2-yl)-ureido)-pyridin-2-yl}-piperazine-1-carboxylic acid {2-chloro-5-(2-hydroxy-ethoxy)-phenyl}-amide] returned a melting point of 128 to 129 °C. Further, in data set [1], the inhibition at 0.1 µg/mL is not below 50%.

The molecule `COc1ccc(C)cc1NC(=O)Nc1ccc(N2CCN(C(=O)Nc3cc(OCCO)ccc3Cl)CC2)nc1` [Example 238, 4-{5-[3-(2-methoxy-5-methyl-phenyl)-ureido]-pyridin-2-yl}-piperazine-1-carboxylic acid [2-chloro-5-(2-hydroxy-ethoxy)-phenyl]-amide] yielded a melting point of 132 to 134 °C. Also, in data set [1], the inhibition at 0.1 µg/mL was not below 50%.

The molecule `COc1ccc(C)cc1NC(=O)Nc1ccc(N2CCN(C(=O)Nc3ccc(OCCO)cc3C(F)(F)F)CC2)c(C)c1` [Example 239, 4-{4-[3-(2-methoxy-5-methyl-phenyl)-ureido]-2-methyl-phenyl}-piperazine-1-carboxylic acid [4-(2-hydroxy-ethoxy)-2-trifluoromethyl-phenyl]-amide] returned a melting point of 225 to 228 °C. Moreover, in data set [1], the inhibition at 0.1 µg/mL was not below 50%.

Consider `O=C(Nc1ccc(N2CCN(C(=O)Nc3ccc(OCCO)cc3C(F)(F)F)CC2)cc1)Nc1ccccc1OC(F)(F)F` [Example 240, 4-{4-[3-(2-trifluoromethoxy-phenyl)-ureido]-phenyl}-piperazine-1-carboxylic acid [4-(2-hydroxy-ethoxy)-2-trifluoromethyl-phenyl]-amide], for which the melting point was in the range of 112 to 114 °C. Moreover, in data set [1], the inhibition at 0.1 µg/mL is not below 50%.

`CSc1ccccc1NC(=O)Nc1ccc(N2CCN(C(=O)Nc3ccc(OCCO)cc3C(F)(F)F)CC2)cc1` [Example 241, 4-{4-[3-(2-methylsulfanyl-phenyl)-ureido]-phenyl}-piperazine-1-carboxylic acid [4-(2-hydroxy-ethoxy)-2-trifluoromethyl-phenyl]-amide] registered a melting point of 115 to 116 °C. Further, in data set [1], the inhibition at 0.1 µg/mL was not below 50%.

Molecule `COc1ccc(C)cc1NC(=O)Nc1ccc(N2CCN(C(=O)Nc3ccc(OCCO)cc3C(F)(F)F)CC2)c(C#N)c1` [Example 242, 4-{2-cyano-4-[3-(2-methoxy-5-methyl-phenyl)-ureido]-phenyl}-piperazine-1-carboxylic acid [4-(2-hydroxy-ethoxy)-2-trifluoromethyl-phenyl]-amide] yielded a melting point of 135 to 137 °C. The inhibition at 0.1 µg/mL in data set [1] was not below 50%.

Consider `O=C(Nc1ccc(N2CCN(C(=O)Nc3ccc(OCCO)cc3C(F)(F)F)CC2)cc1)Nc1ccc2c(c1)CCO2` [Example 243, 4-{4-[3-(2,3-dihydro-benzofuran-5-yl)-ureido]-phenyl}-piperazine-1-carboxylic acid [4-(2-hydroxy-ethoxy)-2-trifluoromethyl-phenyl]-amide], for which the melting point was 212 to 214 °C. In data set [1], the inhibition at 0.1 µg/mL is not below 50%.

For `O=C(Nc1ccc(N2CCN(C(=O)Nc3ccc(OCCO)cc3C(F)(F)F)CC2)cc1)Nc1cccc2c1OCCO2` [Example 244, 4-{4-[3-(2,3-dihydro-1,4-benzodioxin-5-yl)-ureido]-phenyl}-piperazine-1-carboxylic acid [4-(2-hydroxy-ethoxy)-2-trifluoromethyl-phenyl]-amide], the melting point fell in the range of 127 to 129 °C. Besides, in data set [1], the inhibition at 0.1 µg/mL is not below 50%.

The molecule `O=C(Nc1ccc(N2CCN(C(=O)Nc3ccc(OCCO)cc3C(F)(F)F)CC2)cc1)Nc1ccccc1OC(F)F` [Example 245, 4-{4-[3-(2-difluoromethoxy-phenyl)-ureido]-phenyl}-piperazine-1-carboxylic acid [4-(2-hydroxy-ethoxy)-2-trifluoromethyl-phenyl]-amide] had a melting point of 118 to 120 °C. Also, the inhibition at 0.1 µg/mL in data set [1] was not below 50%.

Take `CCc1csc(NC(=O)Nc2ccc(N3CCN(C(=O)Nc4ccc(OCCO)cc4C(F)(F)F)CC3)cc2)n1` [Example 246, 4-{4-[3-(4-ethyl-thiazol-2-yl)-ureido]-phenyl}-piperazine-1-carboxylic acid [4-(2-hydroxy-ethoxy)-2-trifluoromethyl-phenyl]-amide]: the melting point was in the range of 124 to 125 °C. In addition, the inhibition at 0.1 µg/mL in data set [1] is not below 50%.

In general, melting point refers to the temperature of the solid-liquid transition.
